Measured values taken from ChEMBL document CHEMBL1201862, “PubChem BioAssay data set” (2004).
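All cell lines were grown in 96-well plates and treated with compound for 48 hours. GI50 is the concentration that inhibits growth by half.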 Activity calls are given as the source filed them. Cut-off read from the data, not from the text of the source: active = GI50 up to about 1.1 µM and inactive = higher.

How the values were obtained:
Assay in all cases: NCI anticancer screen, dose series, 48 h
UO-31 = test system: UO-31
U-251 = test system: U-251
SNB-19 = test system: SNB-19
SK-MEL-28 = test system: SK-MEL-28
HCT-116 = test system: HCT-116
OVCAR-8 = test system: OVCAR-8
SK-OV-3 = test system: SK-OV-3
KM12 = test system: KM12
M14 = test system: M14
SF-268 = test system: SF-268
A498 = test system: A498
HT-29 = test system: HT-29
OVCAR-5 = test system: OVCAR-5
CAKI-1 = test system: CAKI-1
HOP-62 = test system: HOP-62
SK-MEL-5 = test system: SK-MEL-5
MDA-N = test system: MDA-N
COLO 205 = test system: COLO 205
BT-549 = test system: BT-549
LOX IMVI = test system: LOX IMVI
NCI/ADR-RES = test system: NCI/ADR-RES
NCI-H226 = test system: NCI-H226
Hs-578T = test system: Hs-578T
OVCAR-3 = test system: OVCAR-3
RXF 393 = test system: RXF 393
MDA-MB-435 = test system: MDA-MB-435
IGROV-1 = test system: IGROV-1
A549 = test system: A549
OVCAR-4 = test system: OVCAR-4
EKVX = test system: EKVX
SW-620 = test system: SW-620
SK-MEL-2 = test system: SK-MEL-2
786-0 = test system: 786-0
RPMI-8226 = test system: RPMI-8226
MOLT-4 = test system: MOLT-4
DU-145 = test system: DU-145
UACC-257 = test system: UACC-257
SNB-75 = test system: SNB-75
HL-60 = test system: HL-60
ACHN = test system: ACHN
HCT-15 = test system: HCT-15
PC-3 = test system: PC-3
SN12C = test system: SN12C
NCI-H460 = test system: NCI-H460
Malme-3M = test system: Malme-3M
CCRF-CEM = test system: CCRF-CEM
K562 = test system: K562
TK-10 = test system: TK-10
UACC-62 = test system: UACC-62
MDA-MB-231 = test system: MDA-MB-231
NCI-H23 = test system: NCI-H23
NCI-H522 = test system: NCI-H522
SF-295 = test system: SF-295
SR = test system: SR
HCC 2998 = test system: HCC 2998
MCF7 = test system: MCF7
HOP-92 = test system: HOP-92
SF-539 = test system: SF-539
T47D = test system: T47D

## CCN(CC)CCNc1n[n+]([O-])c2cc([N+](=O)[O-])ccc2[n+]1[O-]
UO-31
  GI50: 1.49 µM (inactive)
U-251
  GI50: 0.701 µM (active)
SNB-19
  GI50: 1.28 µM (inactive)
SK-MEL-28
  GI50: 5.35 µM (inactive)
HCT-116
  GI50: 0.318 µM (active)
OVCAR-8
  GI50: 0.391 µM (active)
SK-OV-3
  GI50: 0.729 µM (active)
KM12
  GI50: 0.543 µM (active)
M14
  GI50: 0.423 µM (active)
SF-268
  GI50: 0.661 µM (active)
A498
  GI50: 1.08 µM (active)
HT-29
  GI50: 0.252 µM (active)
OVCAR-5
  GI50: 1.47 µM (inactive)
CAKI-1
  GI50: 0.204 µM (active)
HOP-62
  GI50: 0.385 µM (active)
SK-MEL-5
  GI50: 0.362 µM (active)
MDA-N
  GI50: 0.562 µM (active)
COLO 205
  GI50: 0.348 µM (active)
BT-549
  GI50: 1.81 µM (inactive)
LOX IMVI
  GI50: 0.467 µM (active)
NCI/ADR-RES
  GI50: 1.11 µM (active)
NCI-H226
  GI50: 1.87 µM (inactive)
Hs-578T
  GI50: 3.11 µM (inactive)
OVCAR-3
  GI50: 0.849 µM (active)
RXF 393
  GI50: 1.47 µM (inactive)
MDA-MB-435
  GI50: 0.826 µM (active)
IGROV-1
  GI50: 0.132 µM (active)
A549
  GI50: 0.678 µM (active)
OVCAR-4
  GI50: 0.828 µM (active)
EKVX
  GI50: 1.9 µM (inactive)

## CCCNC1=Nc2ccccc2NC(C)C1 (configuration not stated)
UO-31
  GI50: > 100 µM (inactive)
SW-620
  GI50: > 100 µM (inactive)
U-251
  GI50: > 100 µM (inactive)
SK-MEL-2
  GI50: > 100 µM (inactive)
SNB-19
  GI50: > 100 µM (inactive)
SK-MEL-28
  GI50: > 100 µM (inactive)
HCT-116
  GI50: > 100 µM (inactive)
786-0
  GI50: > 100 µM (inactive)
RPMI-8226
  GI50: > 100 µM (inactive)
OVCAR-8
  GI50: > 100 µM (inactive)
SK-OV-3
  GI50: > 100 µM (inactive)
MOLT-4
  GI50: > 100 µM (inactive)
KM12
  GI50: > 100 µM (inactive)
DU-145
  GI50: > 100 µM (inactive)
M14
  GI50: > 100 µM (inactive)
SF-268
  GI50: > 100 µM (inactive)
A498
  GI50: > 100 µM (inactive)
HT-29
  GI50: > 100 µM (inactive)
OVCAR-5
  GI50: > 100 µM (inactive)
UACC-257
  GI50: > 100 µM (inactive)
CAKI-1
  GI50: > 100 µM (inactive)
HOP-62
  GI50: > 100 µM (inactive)
SNB-75
  GI50: 22.6 µM (inactive)
SK-MEL-5
  GI50: > 100 µM (inactive)
MDA-N
  GI50: > 100 µM (inactive)
COLO 205
  GI50: > 100 µM (inactive)
BT-549
  GI50: > 100 µM (inactive)
HL-60
  GI50: > 100 µM (inactive)
ACHN
  GI50: > 100 µM (inactive)
HCT-15
  GI50: > 100 µM
NCI/ADR-RES
  GI50: > 100 µM (inactive)
NCI-H226
  GI50: > 100 µM (inactive)
PC-3
  GI50: > 100 µM (inactive)
Hs-578T
  GI50: > 100 µM (inactive)
OVCAR-3
  GI50: > 100 µM (inactive)
RXF 393
  GI50: > 100 µM (inactive)
SN12C
  GI50: > 100 µM (inactive)
NCI-H460
  GI50: > 100 µM (inactive)
Malme-3M
  GI50: 79.6 µM (inactive)
CCRF-CEM
  GI50: > 100 µM (inactive)
K562
  GI50: > 100 µM (inactive)
MDA-MB-435
  GI50: > 100 µM (inactive)
TK-10
  GI50: > 100 µM (inactive)
IGROV-1
  GI50: > 100 µM (inactive)
UACC-62
  GI50: > 100 µM (inactive)
A549
  GI50: > 100 µM (inactive)
MDA-MB-231
  GI50: > 100 µM (inactive)
NCI-H23
  GI50: > 100 µM (inactive)
OVCAR-4
  GI50: > 100 µM (inactive)
EKVX
  GI50: > 100 µM (inactive)
NCI-H522
  GI50: > 100 µM (inactive)
SF-295
  GI50: > 100 µM (inactive)

## c1ccc2sc(C3(N4CCCCC4)CCCC3)cc2c1
UO-31
  GI50: 16.9 µM (inactive)
SW-620
  GI50: 8.02 µM (inactive)
SR
  GI50: 0.838 µM (active)
SNB-19
  GI50: 13.8 µM (inactive)
SK-MEL-28
  GI50: 14.6 µM (inactive)
HCT-116
  GI50: 5.94 µM (inactive)
786-0
  GI50: 9.93 µM (inactive)
RPMI-8226
  GI50: 2.38 µM (inactive)
OVCAR-8
  GI50: 10.4 µM (inactive)
SK-OV-3
  GI50: 15.9 µM (inactive)
MOLT-4
  GI50: 3.52 µM (inactive)
KM12
  GI50: 7.01 µM (inactive)
DU-145
  GI50: 11.3 µM (inactive)
M14
  GI50: 15.1 µM (inactive)
SF-268
  GI50: 11.4 µM (inactive)
A498
  GI50: 12.7 µM (inactive)
HT-29
  GI50: 3.24 µM (inactive)
OVCAR-5
  GI50: 11 µM (inactive)
UACC-257
  GI50: 14.6 µM (inactive)
CAKI-1
  GI50: 18.1 µM (inactive)
HCC 2998
  GI50: 3.85 µM (inactive)
HOP-62
  GI50: 15 µM (inactive)
SNB-75
  GI50: 15.9 µM (inactive)
SK-MEL-5
  GI50: 10.9 µM (inactive)
MCF7
  GI50: 8.02 µM (inactive)
HOP-92
  GI50: 11.2 µM (inactive)
MDA-N
  GI50: 17.4 µM (inactive)
COLO 205
  GI50: 5.53 µM (inactive)
BT-549
  GI50: 12.6 µM (inactive)
HL-60
  GI50: 4.69 µM (inactive)
LOX IMVI
  GI50: 17.9 µM (inactive)
ACHN
  GI50: 8.65 µM (inactive)
HCT-15
  GI50: 5.92 µM
NCI/ADR-RES
  GI50: 6.24 µM (inactive)
SF-539
  GI50: 16.1 µM (inactive)
NCI-H226
  GI50: 1.79 µM (inactive)
Hs-578T
  GI50: 14.1 µM (inactive)
OVCAR-3
  GI50: 8.69 µM (inactive)
RXF 393
  GI50: 14.1 µM (inactive)
SN12C
  GI50: 13.5 µM (inactive)
NCI-H460
  GI50: 5.93 µM (inactive)
Malme-3M
  GI50: 13.8 µM (inactive)
CCRF-CEM
  GI50: 3.5 µM (inactive)
K562
  GI50: 6.61 µM (inactive)
MDA-MB-435
  GI50: 14.9 µM (inactive)
TK-10
  GI50: 13.6 µM (inactive)
IGROV-1
  GI50: 10.6 µM (inactive)
UACC-62
  GI50: 15.5 µM (inactive)
A549
  GI50: 5.43 µM (inactive)
NCI-H23
  GI50: 4.06 µM (inactive)
OVCAR-4
  GI50: 9.02 µM (inactive)
EKVX
  GI50: 7.14 µM (inactive)
NCI-H522
  GI50: 11.4 µM (inactive)
SF-295
  GI50: 11 µM (inactive)

## CCCCNC(=S)Nc1nc(C(=O)NNC(=S)NCc2ccccc2)cs1
UO-31
  GI50: 23.9 µM (inactive)
SW-620
  GI50: 48.2 µM (inactive)
SR
  GI50: 8.24 µM (inactive)
U-251
  GI50: 34.5 µM (inactive)
SK-MEL-2
  GI50: 46.9 µM (inactive)
T47D
  GI50: 13.2 µM (inactive)
HCT-116
  GI50: 32.9 µM (inactive)
786-0
  GI50: 39.4 µM (inactive)
RPMI-8226
  GI50: 45.9 µM (inactive)
OVCAR-8
  GI50: 24.1 µM (inactive)
SK-OV-3
  GI50: 88.5 µM (inactive)
MOLT-4
  GI50: 19.1 µM (inactive)
KM12
  GI50: 49.1 µM (inactive)
DU-145
  GI50: 39.6 µM (inactive)
M14
  GI50: 38.6 µM (inactive)
SF-268
  GI50: 20.6 µM (inactive)
A498
  GI50: > 100 µM (inactive)
HT-29
  GI50: 37.2 µM (inactive)
OVCAR-5
  GI50: > 100 µM (inactive)
UACC-257
  GI50: 20.2 µM (inactive)
CAKI-1
  GI50: 29.6 µM (inactive)
HCC 2998
  GI50: 36.6 µM (inactive)
HOP-62
  GI50: > 100 µM (inactive)
SK-MEL-5
  GI50: 16.3 µM (inactive)
MCF7
  GI50: 12.3 µM (inactive)
MDA-N
  GI50: 39.9 µM (inactive)
COLO 205
  GI50: 33.9 µM (inactive)
BT-549
  GI50: 67 µM (inactive)
LOX IMVI
  GI50: 18.7 µM (inactive)
ACHN
  GI50: 26.6 µM (inactive)
HCT-15
  GI50: 10.2 µM
NCI/ADR-RES
  GI50: 30.1 µM (inactive)
SF-539
  GI50: 31.9 µM (inactive)
NCI-H226
  GI50: 32.9 µM (inactive)
PC-3
  GI50: 62.1 µM (inactive)
OVCAR-3
  GI50: 52.4 µM (inactive)
SN12C
  GI50: 31 µM (inactive)
Malme-3M
  GI50: 50.5 µM (inactive)
CCRF-CEM
  GI50: > 10 µM (inactive)
K562
  GI50: 34.4 µM (inactive)
MDA-MB-435
  GI50: 35.8 µM (inactive)
TK-10
  GI50: 49.8 µM (inactive)
IGROV-1
  GI50: 30.1 µM (inactive)
UACC-62
  GI50: 19 µM (inactive)
A549
  GI50: 52.4 µM (inactive)
MDA-MB-231
  GI50: 66.4 µM (inactive)
NCI-H23
  GI50: 75 µM (inactive)
OVCAR-4
  GI50: 35.3 µM (inactive)
EKVX
  GI50: 42.8 µM (inactive)
NCI-H522
  GI50: 48.5 µM (inactive)
SF-295
  GI50: 37.5 µM (inactive)
